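A five-concentration, 48-hour dose response in 96-well plates underlies each endpoint, interpolated linearly between surrounding concentrations. At the GI50, growth is halved. TGI denotes the concentration required for complete inhibition of growth.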
What was measured:
Test in all cases: NCI anticancer screen, dose series, 48 h
CCRF-CEM leukemia = test system: CCRF-CEM leukemia
T-47D breast = test system: T-47D breast
OVCAR-3 ovarian = test system: OVCAR-3 ovarian
PC-3 prostate = test system: PC-3 prostate
UACC-257 melanoma = test system: UACC-257 melanoma
SK-MEL-5 melanoma = test system: SK-MEL-5 melanoma
NCI-H460 lung = test system: NCI-H460 lung
SF-539 CNS = test system: SF-539 CNS
KM12 colon = test system: KM12 colon
NCI/ADR-RES ovarian = test system: NCI/ADR-RES ovarian

Row | Structure (SMILES) | GI50 (CCRF-CEM leukemia) | TGI (CCRF-CEM leukemia) | GI50 (T-47D breast) [µM] | TGI (T-47D breast) [µM] | GI50 (OVCAR-3 ovarian) | TGI (OVCAR-3 ovarian) | GI50 (PC-3 prostate) [µM] | TGI (PC-3 prostate) [µM] | GI50 (UACC-257 melanoma) | TGI (UACC-257 melanoma) | GI50 (SK-MEL-5 melanoma) | TGI (SK-MEL-5 melanoma) | GI50 (NCI-H460 lung) | TGI (NCI-H460 lung) | GI50 (SF-539 CNS) | TGI (SF-539 CNS) | GI50 (KM12 colon) | TGI (KM12 colon) | GI50 (NCI/ADR-RES ovarian) [µM] | TGI (NCI/ADR-RES ovarian) [µM]
1 | CCOC(=O)C1=CSC2=NC3=C(CCC/C3=C\c3cc(OC)c(OC)c(OC)c3)C(c3cc(OC)c(OC)c(OC)c3)N12 (centres undefined) | 0.47 µM | 3.74 µM | 3.83 | > 100 | 2.96 µM | > 100 µM | 0.751 | > 100 | 1.73 µM | > 100 µM |  |  |  |  |  |  |  |  |  | 
2 | CCOC(=O)C1=C(C)N(Cc2ccc(Cl)cc2Cl)[C@]2(C#N)C(O)=C(Cl)C(Cl)=C(O)[C@]12C#N | 18.4 µM | 37.3 µM | 31.9 | 78.4 | 46.7 µM | > 100 µM |  |  | > 100 µM | > 100 µM | > 100 µM | > 100 µM | > 100 µM | > 100 µM | 14.2 µM | 33.1 µM | > 100 µM | > 100 µM | 0.19 | 15.6
3 | CC(=O)c1c(O)c2c([nH]c1=O)CCCC2 |  | > 100 µM |  |  |  | > 100 µM |  |  |  |  |  |  |  | 30.5 µM |  |  |  |  |  | 
4 | O=C(CCC(=O)C1Cc2ccccc2C1=O)Nc1cccc(C(F)(F)F)c1 (centres undefined) |  | > 100 µM |  |  |  | > 100 µM |  |  |  | > 100 µM |  | > 100 µM |  | > 100 µM |  | > 100 µM |  | > 100 µM |  | 
5 | O=c1c2cccc3cccc(c4n1CCCN=4)c32 |  | > 100 µM |  |  |  | > 100 µM |  |  |  | > 100 µM |  | > 100 µM |  | > 100 µM |  | > 100 µM |  | > 100 µM |  | 
6 | O=C1c2ccoc2C(=O)c2oc(=O)ccc21 |  | 15.7 µM |  |  |  | 8.69 µM |  |  |  | 20.8 µM |  | 3.15 µM |  | 37.1 µM |  | 8.31 µM |  | > 57.7 µM |  | 
7 | CC(C)(C)c1cc(C(OCCl)(C(F)(F)F)C(F)(F)F)c2c(c1)C(C(F)(F)F)(C(F)(F)F)OC21c2ccccc2C(=O)c2ccccc21 |  |  |  |  |  | > 100 µM |  |  |  | > 100 µM |  | > 100 µM |  | > 100 µM |  | > 100 µM |  | > 100 µM |  | 
8 | C/C(CC(=O)Nc1cccc(Cl)c1C)=N\N=C(N)N |  | > 100 µM |  |  |  | > 100 µM |  |  |  | > 100 µM |  | > 100 µM |  | > 100 µM |  | > 100 µM |  | > 100 µM |  | 
9 | O=C(Nc1nc2c(s1)CCc1c-2c(Br)n(Cc2ccccc2)c1Br)c1ccccc1 |  |  | 1.4 | 19.7 | 4.24 µM | 17.3 µM | 4.26 | > 100 | 8.53 µM | > 100 µM | 2.17 µM | 11.6 µM | 3.82 µM | > 100 µM | 1.55 µM | 3.38 µM | 6.19 µM | > 100 µM | 21 | > 100
10 | O=C(Nc1ccc(Cl)c(Cl)c1)C1C(=O)N(c2ccc(Cl)c(Cl)c2)C(=O)/C1=N\O (centres undefined) |  | > 100 µM |  |  |  | > 100 µM |  |  |  | > 100 µM |  | > 100 µM |  |  |  | > 100 µM |  |  |  | 
11 | COC(=O)c1cc2ccccc2c2nc3ccccc3c(Cl)c12 |  | > 100 µM |  |  |  | > 100 µM |  |  |  | > 100 µM |  | > 100 µM |  |  |  | > 100 µM |  | > 100 µM |  | 
12 | CN1CCOCCOCCOc2ccccc2NC(=O)c2nc(cnc2N)-c2ccc(cc2)S1(=O)=O |  |  | > 100 | > 100 |  |  | > 100 | > 100 |  |  |  |  |  |  | 0.0371 µM | > 100 µM |  |  |  | 
13 | COc1cc2c3c(n(CCCN4CCSCC4)c(=O)c2cc1OC)-c1cc2c(cc1C3=O)OCO2 |  |  | > 100 | > 100 | 35 µM | 97.1 µM | 42.8 | > 100 | > 100 µM | > 100 µM | > 100 µM | > 100 µM | 49.7 µM | > 100 µM | 18.2 µM | 34.5 µM | > 100 µM | > 100 µM | > 100 | > 100
14 | NNC(=O)N/N=C1\CNC(=O)C(=O)C1c1nc2ccccc2s1 (centres undefined) |  | > 100 µM |  |  |  | > 100 µM |  |  |  | > 100 µM |  | > 100 µM |  | > 100 µM |  | > 100 µM |  | > 100 µM |  | 
15 | Nc1c(C(=O)Nc2ccccc2O)[n+]([O-])c2ccccc2[n+]1[O-] |  |  |  |  |  | > 100 µM |  |  |  | 44.6 µM |  | 28.3 µM |  | > 100 µM |  | > 100 µM |  | > 100 µM |  | 
16 | COc1ncc2cc1NS(=O)(=O)c1cccc(c1)C(=O)NCC1=CC=C(S1)c1ncnc3c1SC2=C3C | 0.153 µM | 1.16 µM | 0.0946 | 4.04 | 0.115 µM | 0.431 µM | 0.0797 | 2.77 | 0.371 µM | 2.99 µM | 0.0369 µM | 0.151 µM | 0.37 µM | 2.55 µM |  |  | 0.269 µM | 1.34 µM | 0.542 | 9.63
17 | COc1ccc2c3c(c(C(=O)O)oc13)C(CCC(=O)O)CC2 (centres undefined) |  |  |  |  |  | > 100 µM |  |  |  | > 100 µM |  | > 100 µM |  | > 100 µM |  | > 100 µM |  |  |  | 
18 | Nc1c(-c2nc3ccccc3s2)[n+]([O-])c2ccccc2[n+]1[O-] |  | > 100 µM |  |  |  | 60.6 µM |  |  |  | > 100 µM |  | 40.4 µM |  | > 100 µM |  | 78.8 µM |  | > 100 µM |  | 
19 | NC(=O)C(=O)Cc1nc2ccccc2s1 |  | > 100 µM |  |  |  | > 100 µM |  |  |  | > 100 µM |  |  |  | > 100 µM |  | > 100 µM |  | > 100 µM |  | 
20 | CN(C)CCNC(=O)c1cccc2cc3ccc4ccccc4c3nc12 |  | 0.267 µM |  |  |  | 0.738 µM |  |  |  | 0.535 µM |  | 0.358 µM |  | 0.163 µM |  | 0.39 µM |  | 1.2 µM |  | 
21 | c1ccc2c(c1)[O][Sn][O]2 | 1.12 µg/mL | > 150 µg/mL |  |  | 10.9 µg/mL | > 150 µg/mL |  |  | > 150 µg/mL | > 150 µg/mL | 20.7 µg/mL | > 150 µg/mL | 46 µg/mL | > 150 µg/mL | 26.2 µg/mL | > 150 µg/mL | 21.8 µg/mL | > 150 µg/mL |  | 
22 | Nc1ncnc2sc(Nc3ccccc3)nc12 |  |  |  |  |  | > 100 µM |  |  |  | > 100 µM |  |  |  | > 100 µM |  | > 100 µM |  | > 100 µM |  | 
23 | CC1(C)OC2OC(COC(=O)C(c3ccccc3)c3ccccc3)C3OC(C)(C)OC3C2O1 (centres undefined) |  | > 100 µM |  |  |  |  |  |  |  |  |  | 24.4 µM |  | > 100 µM |  | > 100 µM |  | > 100 µM |  | 
24 | C1=C(c2ccccc2)C(OC2Oc3ccccc3C=C2c2ccccc2)Oc2ccccc21 (centres undefined) |  | > 100 µM |  |  |  | > 100 µM |  |  |  | > 100 µM |  | > 100 µM |  | > 100 µM |  |  |  | > 100 µM |  | 

Source: PubChem BioAssay (NCI)
